From the NIST ThermoML archive (doi:10.1021/je0497698)
± gives the expanded uncertainty stated by the source.

Details: Liquid

| vapor or sublimation pressure (273.15 K) [kPa] | vapor or sublimation pressure (283.15 K) [kPa] | vapor or sublimation pressure (293.15 K) [kPa] | vapor or sublimation pressure (303.15 K) [kPa] | vapor or sublimation pressure (313.15 K) [kPa] | SMILES |
| --- | --- | --- | --- | --- | --- |
| 816.8 ± 2.2 | 1111.8 ± 2.2 | 1480.2 ± 2.4 | 1930.4 ± 2.5 | 2478 ± 2.8 | FCF [difluoromethane] |
| 587.8 ± 2.1 | 781.2 ± 2.1 | 1020.2 ± 2.2 | 1308.2 ± 2.3 | 1650.8 ± 2.5 | C=CC [propene] |
